For this data set, the system named is HepG2 tumor. Nature of the data set: Anti-tumor activity in vivo, HepG2 mice model. Details: species or system CD-1 nu/nu mice. To be noted: CHis6-rAGAP 1 and 2 mg/kg, 5-FU 25 mg/kg, every 2 days. Here is the method: The CD-1 nu/nu mice (thymus removed, bodyweight 16˜18 g, half male and half female) were purchased from Shanghai Experiment Animal Center of Chinese Academy of Sciences. The mice were subcutaneously injected 5×10^6 HepG2 cells to make a model, when the tumor volume was grew to about 100 mm^3, the mice were randomized into four groups, 10 mice in each group, the experiment groups were respectively injected 1 mg/kg and 2 mg/kg of CHis6-rAGAP, the positive control group were injected 25 mg/kg of 5-FU, the negative control group was injected with normal saline, the volumes were all 200 μl/2 days. The change of tumor volume and bodyweight of the mice were determined every 2 days, after 18 days the mice were killed, and the tumor were taken out. […] In order to evaluate the influence of CHis6-rAGAP and 5-FU on life quality of the mice, change of mice bodyweight was also determined during the experiment. […] Furthermore, after 18 days of drug administration, there was no death case in the mice of CHis6-rAGAP administration group, whereas 40% of the mice in 5-FU group were dead.

The values below come from patent publication US20170002048A1, “METHOD FOR PURIFYING AND RE[…] BODIES OF SCORPION TOXIN PROTEIN AND THEIR USE” (GUANGZHOU GLAM BIOTECHNOLOGY CO., LTD., priority 2015, published 2017).

As for `O=c1[nH]cc(F)c(=O)[nH]1` [5-FU], the “death of mice after 18 days of drug administration” value was 40%. Under “18 days”, the “influence on bodyweight of the mice” value is on record as “reduced significantly”.
